# Results reported in patent US9150509B2, “Lipoic acid derivatives” (Cornerstone Pharmaceuticals, Inc., priority 2007, dated 2015).
# Read-outs that look alike come from different tables or passages of the source.
# What was measured:
# Format in all cases: cell-based
# human melanoma A2058 = test: Anti-tumor activity, cell growth inhibition by CellTiter Blue Assay, A2058; conditions: read-out: IC50 A2058 (melanoma)
# Description: (§1) Three human tumor cells were used in this investigation, and they were human H460 NSCLC, human melanoma A2058 and human […] HT1080 cell lines. Cells were originally obtained from American Type Cell Culture (ATCC) and have been used for experiments at passages below 30. All tumor cells were maintained at 37° C. in a humidified 5% CO2 atmosphere in T75 tissue culture flasks containing 25 mL of Roswell Park Memorial Institute (RPMI) 1640, with 10% fetal bovine serum (FBS) and 2 mM L-glutamine. The tumor cells were split at a ratio of 1:10 every 4-5 days by trypsinization and resuspended in fresh medium in a new flask. Cells were harvested for experiments at 70-90% confluency.
# (§2) The culture media used for all cell lines in this study was Roswell Park Memorial Institute (RPMI) 1640, with 10% fetal bovine serum (FBS), 2 mM L-glutamine, 100 IU/mL penicillin and 100 μg/ml streptomycin. The test compounds used were generally prepared at a concentration higher than 20 mM and tested at 1 mM in cultured media for precipitation, 1 mM is the highest tested concentration of the test compounds.
# (§3) The anti-tumor activities of the test compounds were assessed by exposing the tumor cells to various concentrations of test compounds (or vehicle) or not treated with the test compounds or vehicle. The concentration ranges of the test compounds evaluated in this study were 0-1 mM. The duration of treatment of the tumor cells was 48 hours. Subsequent to treatment with the test articles, the number of viable tumor cells was determined, and the concentrations of the test agents that induced 50% of cell growth inhibition (IC50) were derived and compared.
# (§4) Cell Seeding for Experiments: To cells grown to 70-90% confluency, medium was removed and the cell monolayers were washed briefly by adding 5 mL of phosphate buffer saline (PBS) followed by aspiration. Trypsin-ethylenediaminetetraacetic acid (EDTA) (4 mL) was added to each, flask, and the flask was placed in the tissue culture incubator for 5 minutes. Serum-containing medium (10 mL) was added to halt the enzymatic reactions, and cells were disaggregated, by repeated resuspension with serological pipet. The cell-containing medium (20 μL) was added to 20 μL of 0.4% Trypan Blue solution, mixed, and 10 μL of this cell-containing mixture was placed in a chamber of a hemocytometer. The number of viable cells was determined by counting the number of viable cells (cells that excluded trypan blue) in the 4 corner squares of the hemocytometer chamber at 100× magnification. The volume of cells needed was determined by the following formula:
# (§5) The number of cells targeted for the study was 4×10^3 per well in 100 μL of medium. The actual number of cells were counted and seeded in the wells of a 96 well-plate. The cells were then incubated for ˜24 hrs before they were used for testing of anti-tumor activities of the test compounds and vehicle. Cell monolayer was confluent or subconfluent for some cell lines at the day of the experiment.
# (§6) Treatment with Test Compounds and Vehicle: On the day of testing, 5 μL of a specific concentration of the test compounds (or vehicle) were added to the wells. After exposure to the test articles (or vehicle) for 48 hours, the number of viable cells in the wells was determined (see next section), and the percent of cells relative to no treatment was calculated.
# (§7) Determination of the Number of Viable Cells by the CellTiter Blue Assay: The number of viable cells was determined using the CellTiter Blue Assay in this study. Specifically, reagents were allowed to come to room temperature according to instructions from Protoega, Inc. (Madison, Wis.). CellTiter Blue reagent was added with the 12-channel Eppendorf pipettor, 20 μL per well. The cells were then incubated at 37° C. for 1-4 hrs in cell culture incubator. Fluorescence intensity, which is proportional to the quantity of viable cells, was read at 530/590 nm using FLUOstar optima fluorescence plate reader (BMG technologies, Germany). […]
# [1] = tested on: human adenocarcinoma HT1080; test: Anti-tumor activity, cell growth inhibition by CellTiter Blue Assay, HT1080; conditions: read-out: IC50 HT1080
# Description: as §1, §2, §3, §4, §5, §6, §7
# human H460 NSCLC = test: Anti-tumor activity, cell growth inhibition by CellTiter Blue Assay, H460; conditions: read-out: IC50 H460 (NSCLC)
# Description: as §1, §2, §3, §4, §5, §6, §7
# [2] = Homo sapiens, A2058, 48 h, A2058 cells, 48 hours treatment, 0-1 mM, viable cells by CellTiter Blue
# [3] = Homo sapiens, HT-1080, 48 h, HT1080 cells, 48 hours treatment, 0-1 mM, viable cells by CellTiter Blue
# [4] = Homo sapiens, NCI-H460, 48 h, H460 cells, 48 hours treatment, 0-1 mM, viable cells by CellTiter Blue
# [5] = A2058 cells, 48 hours treatment, 0-1 mM, viable cells by CellTiter Blue
# [6] = HT1080 cells, 48 hours treatment, 0-1 mM, viable cells by CellTiter Blue
# [7] = H460 cells, 48 hours treatment, 0-1 mM, viable cells by CellTiter Blue
Structure (SMILES),IC50 (human melanoma A2058; [2]),"IC50 [1, 3]",IC50 (human H460 NSCLC; [4]),other results
O=C(O)CCCCC(CCSc1ccnc2cc(Cl)ccc12)Sc1ccnc2cc(Cl)ccc12 (stereo not drawn) [A],183 ± 3 µM,80 ± 8 µM,127 ± 11 µM,–
O=C(O)CCCCC(CCSc1ccnc2ccccc12)Sc1ccnc2ccccc12 (stereo not drawn) [F],–,–,–,"IC50 (human melanoma A2058; Homo sapiens, A2058, 48 h): 51 ± 4 µM; IC50 ([1]; Homo sapiens, HT-1080, 48 h): 68 ± 20 µM; IC50 (human H460 NSCLC; Homo sapiens, NCI-H460, 48 h): 70 ± 13 µM"
O=C(O)CCCCC(CCSSCc1ccccc1)SSCc1ccccc1 (stereo not drawn) [JJ],–,–,–,"IC50 (human melanoma A2058; [5]): 206 ± 55 µM; IC50 [1, 6]: 133 ± 2 µM; IC50 (human H460 NSCLC; [7]): 318 ± 20 µM"
O=C(O)CCCCC(CCSSCc1ccccc1)SSCc1ccccc1 (stereo not drawn) [KK],–,–,–,"IC50 (human melanoma A2058; [5]): 483 ± 180 µM; IC50 [1, 6]: 212 ± 52 µM; IC50 (human H460 NSCLC; [7]): 409 ± 69 µM"
O=C(O)CCCCC1CCSC(c2ccncc2)S1 (stereo not drawn) [Q],–,–,–,"IC50 (human melanoma A2058; Homo sapiens, A2058, 48 h): 717 ± 11 µM"
O=C(O)CCCCC(CCSCc1c(F)c(F)c(F)c(F)c1F)SCc1c(F)c(F)c(F)c(F)c1F (stereo not drawn) [X],59 ± 4 µM,60 ± 18 µM,64 ± 4 µM,–

# Now from value to molecule, other results behind:
IC50 (human melanoma A2058; [2]),"IC50 [1, 3]",IC50 (human H460 NSCLC; [4]),Structure (SMILES),other results
346 ± 20 µM,421 ± 53 µM,449 ± 1 µM,"CCC(S)(CCCCC(=O)O)CC(S)c1ccccc1 (stereo not drawn) [Compound MM, 6-ethyl-8-phenyl-6,8-bismercaptooctanoic acid]",–
238 ± 2 µM,270 ± 4 µM,282 ± 20 µM,"CCSC(CCS)CCCCC(=O)O (stereo not drawn) [H, 6-ethylmercapto-8-mercaptooctanoic acid]",–
125 ± 3 µM,–,167 ± 42 µM,O=C(O)CCCCC(CCSCCc1ccccc1)SCCc1ccccc1 (stereo not drawn) [W],–
